From ChEMBL document CHEMBL3885861, “Open TG-GATES”

Species on record: Rattus norvegicus
Assay: Open TG-GATES - Regimen: Daily Repeat
Format: toxicity, organism-based, Sprague-Dawley
Set-up: regimen Daily Repeat, gender Male, age 6 weeks
Settings: in vivo, po, route gavage; for APTT / Bas / Eos / Fbg / Hb / Ht / Lym / MCH / MCHC / MCV / Mono / PT / Plat / RBC / Ret / WBC / Neu: tissue Blood; for ALP / ALT / BUN / CRE / DBIL / GLC / IP / K / LDH / Na / PL / RALB / TBIL / TC / TG / TP / gamma-GTP: tissue Plasma
[1] = 0 mg/kg, 72 h, dose level Control, time 3 day
[2] = 0 mg/kg, […], dose level Control, time 7 day
[3] = 0 mg/kg, […], dose level Control, time 14 day
[4] = 0 mg/kg, […], dose level Control, time 28 day
[5] = 60 mg/kg, 72 h, dose level Low, time 3 day
[6] = 60 mg/kg, […], dose level Low, time 7 day
[7] = 60 mg/kg, […], dose level Low, time 14 day
[8] = 60 mg/kg, […], dose level Low, time 28 day

Structure (SMILES): CCN(CC)C(=S)SSC(=S)N(CC)CC
- TERMINAL_BW [1]: 228.6 g
- APTT [1]: 22.7 s
- Bas [1]: 0%
- Eos [1]: 0.8%
- Fbg [1]: 295 mg/dL
- Hb [1]: 12.5 g/dL
- Ht [1]: 38.7%
- Lym [1]: 81.8%
- MCH [1]: 20.5 pg
- MCHC [1]: 32.2%
- MCV [1]: 63.6 fL
- Mono [1]: 2.4%
- PT [1]: 16.3 s
- Plat [1]: 112 x10_4/uL
- RBC [1]: 609 x10_4/ul
- Ret [1]: 7%
- WBC [1]: 78.4 x10_2/uL
- ALP [1]: 1421 IU/L
- ALT [1]: 42.6 IU/L
- BUN [1]: 17.6 mg/dL
- CRE [1]: 0.2 mg/dL
- DBIL [1]: 0 mg/dL
- GLC [1]: 192.2 mg/dL
- IP [1]: 7.8 mg/dL
- K [1]: 4.2 meq/L
- LDH [1]: 190.4 IU/L
- Na [1]: 142.6 meq/L
- PL [1]: 136.8 mg/dL
- RALB [1]: 3.1 g/dL
- TBIL [1]: 0.002 mg/dL
- TC [1]: 73.4 mg/dL
- TG [1]: 91.6 mg/dL
- TP [1]: 5.5 g/dL
- gamma-GTP [1]: 1.4 IU/L
- TERMINAL_BW [2]: 265.7 g
- TERMINAL_BW [3]: 313.3 g
- TERMINAL_BW [4]: 364.4 g
- APTT [2]: 22.1 s
- Bas [2]: 0%
- Eos [2]: 0.8%
- Fbg [2]: 315 mg/dL
- Hb [2]: 12.8 g/dL
- Ht [2]: 39.2%
- Lym [2]: 82%
- MCH [2]: 20.3 pg
- MCHC [2]: 32.6%
- MCV [2]: 62.3 fL
- Mono [2]: 2.8%
- PT [2]: 16.4 s
- Plat [2]: 116.8 x10_4/uL
- RBC [2]: 629 x10_4/ul
- Ret [2]: 6.3%
- WBC [2]: 134.5 x10_2/uL
- APTT [3]: 23.7 s
- Bas [3]: 0%
- Eos [3]: 1%
- Fbg [3]: 311.2 mg/dL
- Hb [3]: 13.9 g/dL
- Ht [3]: 41.2%
- Lym [3]: 82.4%
- MCH [3]: 20.1 pg
- MCHC [3]: 33.9%
- MCV [3]: 59.4 fL
- Mono [3]: 2%
- Neu [3]: 13.4%
- PT [3]: 16.3 s
- Plat [3]: 112 x10_4/uL
- RBC [3]: 693.4 x10_4/ul
- Ret [3]: 4.9%
- WBC [3]: 133.7 x10_2/uL
- APTT [4]: 24.8 s
- Bas [4]: 0%
- Eos [4]: 1.2%
- Fbg [4]: 321.4 mg/dL
- Hb [4]: 15.2 g/dL
- Ht [4]: 44.8%
- Lym [4]: 83.2%
- MCH [4]: 19.5 pg
- MCHC [4]: 34%
- MCV [4]: 57.5 fL
- Mono [4]: 2.2%
- Neu [4]: 12.2%
- PT [4]: 16.6 s
- Plat [4]: 98.2 x10_4/uL
- RBC [4]: 780.6 x10_4/ul
- Ret [4]: 2.8%
- WBC [4]: 121 x10_2/uL
- ALP [2]: 1448.6 IU/L
- ALT [2]: 43.6 IU/L
- BUN [2]: 17.4 mg/dL
- CRE [2]: 0.2 mg/dL
- DBIL [2]: 0 mg/dL
- GLC [2]: 203.8 mg/dL
- IP [2]: 7.9 mg/dL
- K [2]: 4.5 meq/L
- LDH [2]: 223 IU/L
- Na [2]: 142 meq/L
- PL [2]: 138.4 mg/dL
- RALB [2]: 3.1 g/dL
- TBIL [2]: 0.008 mg/dL
- TC [2]: 71.4 mg/dL
- TG [2]: 106.6 mg/dL
- TP [2]: 5.5 g/dL
- gamma-GTP [2]: 2.2 IU/L
- ALP [3]: 1430.8 IU/L
- ALT [3]: 45 IU/L
- BUN [3]: 20.8 mg/dL
- CRE [3]: 0.2 mg/dL
- DBIL [3]: 0 mg/dL
- GLC [3]: 204.2 mg/dL
- IP [3]: 7.4 mg/dL
- K [3]: 4.4 meq/L
- LDH [3]: 167 IU/L
- Na [3]: 141.2 meq/L
- PL [3]: 143 mg/dL
- RALB [3]: 3.2 g/dL
- TBIL [3]: 0 mg/dL
- TC [3]: 73.6 mg/dL
- TG [3]: 91.4 mg/dL
- TP [3]: 5.8 g/dL
- gamma-GTP [3]: 2.6 IU/L
- ALP [4]: 1127.4 IU/L
- ALT [4]: 35 IU/L
- BUN [4]: 18.4 mg/dL
- CRE [4]: 0.2 mg/dL
- DBIL [4]: 0 mg/dL
- GLC [4]: 202.8 mg/dL
- IP [4]: 6.8 mg/dL
- K [4]: 4 meq/L
- LDH [4]: 154.8 IU/L
- Na [4]: 143.2 meq/L
- PL [4]: 145 mg/dL
- RALB [4]: 3.2 g/dL
- TBIL [4]: 0.014 mg/dL
- TC [4]: 76 mg/dL
- TG [4]: 113.4 mg/dL
- TP [4]: 6 g/dL
- gamma-GTP [4]: 2.6 IU/L
- TERMINAL_BW [5]: 224.7 g
- APTT [5]: 21.1 s
- Bas [5]: 0%
- Eos [5]: 0.6%
- Fbg [5]: 308.2 mg/dL
- Hb [5]: 12.3 g/dL
- Ht [5]: 38.1%
- MCH [5]: 19.7 pg
- MCHC [5]: 32.2%
- MCV [5]: 61.2 fL
- Mono [5]: 2.2%
- PT [5]: 15.9 s
- Plat [5]: 113.7 x10_4/uL
- RBC [5]: 624.4 x10_4/ul
- Ret [5]: 4.6%
- WBC [5]: 88.7 x10_2/uL
- ALP [5]: 1308.8 IU/L
- ALT [5]: 45.4 IU/L
- BUN [5]: 17.8 mg/dL
- CRE [5]: 0.2 mg/dL
- DBIL [5]: 0 mg/dL
- GLC [5]: 178.8 mg/dL
- IP [5]: 7 mg/dL
- K [5]: 4.1 meq/L
- LDH [5]: 188 IU/L
- Na [5]: 143.6 meq/L
- PL [5]: 151.6 mg/dL
- RALB [5]: 3.1 g/dL
- TBIL [5]: 0.004 mg/dL
- TC [5]: 86.2 mg/dL
- TG [5]: 83 mg/dL
- TP [5]: 5.5 g/dL
- gamma-GTP [5]: 1.6 IU/L
- TERMINAL_BW [6]: 255.2 g
- TERMINAL_BW [7]: 296.1 g
- TERMINAL_BW [8]: 358.2 g
- APTT [6]: 21.7 s
- Bas [6]: 0%
- Eos [6]: 0.6%
- Fbg [6]: 312.8 mg/dL
- Hb [6]: 12.4 g/dL
- Ht [6]: 38.4%
- MCH [6]: 20.1 pg
- MCHC [6]: 32.3%
- MCV [6]: 62.1 fL
- Mono [6]: 2.4%
- PT [6]: 16 s
- Plat [6]: 129.8 x10_4/uL
- RBC [6]: 620.4 x10_4/ul
- Ret [6]: 7.5%
- WBC [6]: 137.8 x10_2/uL
- APTT [7]: 23.8 s
- Bas [7]: 0%
- Eos [7]: 1%
- Fbg [7]: 319.4 mg/dL
- Hb [7]: 13.9 g/dL
- Ht [7]: 40.9%
- MCH [7]: 19.7 pg
- MCHC [7]: 33.8%
- MCV [7]: 58.2 fL
- Mono [7]: 2.8%
- PT [7]: 16.1 s
- Plat [7]: 124.6 x10_4/uL
- RBC [7]: 704.6 x10_4/ul
- Ret [7]: 5.1%
- WBC [7]: 126 x10_2/uL
- APTT [8]: 24 s
- Bas [8]: 0%
- Eos [8]: 1%
- Fbg [8]: 329.2 mg/dL
- Hb [8]: 14.2 g/dL
- Ht [8]: 41.1%
- MCH [8]: 19.2 pg
- MCHC [8]: 34.7%
- MCV [8]: 55.4 fL
- Mono [8]: 2.2%
- PT [8]: 16.5 s
- Plat [8]: 108.8 x10_4/uL
- RBC [8]: 742.2 x10_4/ul
- Ret [8]: 3.3%
- WBC [8]: 116.8 x10_2/uL
- ALP [6]: 991.6 IU/L
- ALT [6]: 37.4 IU/L
- BUN [6]: 16.8 mg/dL
- CRE [6]: 0.2 mg/dL
- DBIL [6]: 0 mg/dL
- GLC [6]: 183 mg/dL
- IP [6]: 7 mg/dL
- K [6]: 4.4 meq/L
- LDH [6]: 217.8 IU/L
- Na [6]: 143.6 meq/L
- PL [6]: 142.4 mg/dL
- RALB [6]: 3 g/dL
- TBIL [6]: 0.012 mg/dL
- TC [6]: 78.4 mg/dL
- TG [6]: 64.2 mg/dL
- TP [6]: 5.5 g/dL
- gamma-GTP [6]: 1.8 IU/L
- ALP [7]: 1244.8 IU/L
- ALT [7]: 37.6 IU/L
- BUN [7]: 18.6 mg/dL
- CRE [7]: 0.2 mg/dL
- DBIL [7]: 0 mg/dL
- GLC [7]: 178 mg/dL
- IP [7]: 6.2 mg/dL
- K [7]: 4.1 meq/L
- LDH [7]: 146.8 IU/L
- Na [7]: 142 meq/L
- PL [7]: 165.2 mg/dL
- RALB [7]: 3.2 g/dL
- TBIL [7]: 0.004 mg/dL
- TC [7]: 92.4 mg/dL
- TG [7]: 70.6 mg/dL
- TP [7]: 5.9 g/dL
- gamma-GTP [7]: 2.8 IU/L
- ALP [8]: 808.4 IU/L
- ALT [8]: 36 IU/L
- CRE [8]: 0.2 mg/dL
- DBIL [8]: 0 mg/dL
- GLC [8]: 183.4 mg/dL
- IP [8]: 5.8 mg/dL
- K [8]: 4 meq/L
- LDH [8]: 106.2 IU/L
- Na [8]: 142.4 meq/L
- PL [8]: 150.2 mg/dL
- RALB [8]: 3 g/dL
- TBIL [8]: 0.018 mg/dL
- TC [8]: 87.2 mg/dL
